Assay results reported in US12234258B2, “Timosaponin compounds” (priority 2012, dated 2025).
Like-named read-outs stand apart in the source and are kept apart here.

Columns and labels:
Assay type in all cases: cell-based
[1] = test system: Aβ1-42 production in SweAPP N2A cells (N2A-APPswe); assay: Aβ1-42 ELISA of conditioned medium of SweAPP N2A cells
Experimental: Neuro-2A cells expressing Swedish mutants of (“SweAPP N2A cells”) was cultured in minimal essential medium with glutamine (2 mM), pyruvate (2 mM) and fetal bovine serum (10%). Cells were seeded at 6-well plate at 1×10^6 cells/mL and grown overnight. The medium was replaced.
Conditioned medium was diluted with 2 part volume of ELISA diluents. Aβ1-42 concentrations were determined by using human Aβ1-42 ultrasensitive ELISA kit (manufactured by Invitrogen).
Cell culture: Neuro-2A cells expressing Swedish mutants of APP (N2A-APPswe) ENREF 12 was cultured in minimal essential medium with 2 mM glutamine, 2 mM pyruvate and 10% fetal bovine serum. Cells were seeded at 6-well plate at 1×10^6 cells/mL and grown for two days until confluence. The medium was replaced and the test compounds were added at indicated concentrations for 24 hr.

[2] = test system: HeLa, human cervical carcinoma cells; assay: Growth of cancer cell lines: HeLa; details: mean ± S.D., n = 3; read-out: IC50 against growth of HeLa
[3] = test system: HepG2, human hepatoma cells; assay: Growth of cancer cell lines: HepG2; details: mean ± S.D., n = 3; read-out: IC50 against growth of HepG2
Neuro-2A cells = assay: Neurite outgrowth of N2A cells; details: FIG. 19; TAIII 5 μM, TAI 10 μM, SSG 25 μM, 18 hr, type III β-tubulin staining
Experimental: Immunofluorescence examination of neurite outgrowth: Neuro-2A cells were seeded at 1×10^5 cells per glass bottom dish. After treatment, cells were fixed with 4% paraformaldyde for 10 min, permeabilized with 0.1% Trition X-100, and then blocked with 1% BSA in PBS. The cells were incubated with monoclonal antibody raised against type III β-tubulin (Sigma) for 1 hr followed by Alexa488 conjugated secondary antibody. Neurite morphology was examined under fluorescence microscope.

[4] = test system: NCI-H460, human non-small lung carcinoma cells; assay: Growth of cancer cell lines: NCI-H460; details: mean ± S.D., n = 3; read-out: IC50 against growth of NCI-H460
[5] = test system: SW480, human colon adenocarcinoma cells; assay: Growth of cancer cell lines: SW480; details: mean ± S.D., n = 3; read-out: IC50 against growth of SW480
[6] = test system: Notch cleavage by γ-secretase in N2A-APPswe cells; assay: Notch cleavage by γ-secretase (NotchΔE/NICD immunoblot); details: FIG. 20; at concentrations that effectively lower Aβ levels, 18 hr
Experimental: Immunoblot analysis: Cells were washed with phosphate buffered saline and lysed with buffer containing 50 mM Tris-Cl, pH 7.4, 150 mM NaCl, 1% Triton X-100 supplemented with protease inhibitors. Equal amount of proteins (30 μg) was resolved by 16.5% Tris-tricine gels and then transferred to nitrocellulose membrane with 0.2 µm pore size. For detection of secreted Aβ, sAPPα and sAPPβ, cells were treated with the timosaponins for 8 hr in complete medium which were then replaced with medium containing 0.1% FBS. After further incubation of 16 hr, 50 μL of the conditioned medium was mixed with SDS sample buffer and resolved accordingly. The membrane was blocked with Tris-buffered saline containing 0.1% TWEEN® 20 and 3% BSA and then incubated with primary antibodies at 4° C. overnight, followed with appropriate secondary antibodies for 2 hr. The primary antibodies were: APP c-terminal rabbit antibody (1:5000; Merck Bioscience) for detection of full length APP and APP-CTFs, mouse monoclonal 6E10 (Covance) for secreted Aβ and sAPPα, mouse monoclonal 6A1 (IBL) for sAPPβswe, ADAM-10 rabbit antibody (Millipore) and BACE1 rabbit antibody (Millipore). The immunoreactivities were detected using enhanced chemiluminescence reagents (GE Health care). […]

[7] = test system: Aβ42, Aβ40 and Aβ38 in N2A-APPswe cells; assay: Aβ42, Aβ40 and Aβ38 profiles in conditioned medium by ELISA; details: FIG. 18, 18 hr
Experimental: Aβ ELISA: Aβ concentrations in conditioned medium were assayed using ELISA kits for human Aβ40, human Aβ42 (ultrasensitive) (Invitrogen) and Aβ38 (MyBioSource).
Cells were treated with various concentrations of (TAIII/TAI/AA/TAV) and DMSO vehicle (C) for 18 hr. In part A of FIG. 18, the expression of full length (FL) and CTF (c99 and c83) in cell lysates and secreted APP (sAPPα and sAPPP) in the conditioned medium were examined by immunoblot using methods specified in Example 6. In part B of FIG. 18, the profiles of Aβ42, Aβ40 and Aβ38 in the conditioned medium were determined by ELISA using methods specified in Example 5.

[8] = Table 4, N2A-APPswe cells, mean ± S.D, n ≥ 3, read-out: IC50 in lowering Aβ42 production
[9] = Example 7, SweAPP N2A cells, Aβ1-42 ELISA, read-out: IC50, inhibition of Aβ production
[10] = N2a-APPswe, read-out: IC50 in lowering Aβ42 production

With `C[C@@H]1CC[C@@]2(OC1)O[C@H]1C[C@H]3[C@@H]4CC=C5C[C@@H](O)CC[C@]5(C)[C@H]4CC[C@]3(C)[C@H]1[C@@H]2C` [Diosgenin] the IC50 [1, 8] was over 100 µM.
`C[C@H]1CC[C@@]2(OC1)O[C@H]1C[C@H]3[C@@H]4CC[C@@H]5C[C@@H](O)CC[C@]5(C)[C@H]4CC[C@]3(C)[C@H]1[C@@H]2C` [Sarsasapogenin] gave an IC50 [2] of 50 ± 2 µM, an IC50 [3] of 32.6 ± 4.58 µM and an IC50 [1, 9] of about 20 µM. For the same molecule, the IC50 [1, 8] was 53 ± 9 µM, the Neurite outgrowth (Neuro-2A cells) was “significant extension and branching of neurites” and the IC50 [4] was 19.2 ± 0.45 µM. The IC50 [5] was 29.4 ± 5.09 µM and the “Notch processing (NotchΔE and NICD)” value [6] was “did not affect the Notch processing”.
In the case of `C[C@H]1CC[C@@]2(OC1)O[C@H]1C[C@H]3[C@@H]4CC[C@@H]5C[C@@H](OCC(=O)O)CC[C@]5(C)[C@H]4CC[C@]3(C)[C@H]1[C@@H]2C` [Ethereal SSG], the IC50 [1, 10] is reported as 27 ± 8 µM and the “Notch processing (NotchΔE and NICD)” value [6] is reported as “did not affect the Notch processing”.
In the case of `C[C@@H]1CC[C@@]2(OC1)O[C@H]1C[C@H]3[C@@H]4CC[C@H]5C[C@@H](O)CC[C@]5(C)[C@H]4CC[C@]3(C)[C@H]1[C@@H]2C` [Tigogenin], the IC50 [1, 10] is reported as over 100 µM.
`C[C@H]1CC[C@@]2(OC1)O[C@H]1C[C@H]3[C@@H]4CC[C@@H]5C[C@@H](O[C@@H]6O[C@H](CO)[C@H](O[C@@H]7O[C@H](CO)[C@@H](O)[C@H](O)[C@H]7O)[C@H](O)[C@H]6O[C@@H]6O[C@H](CO)[C@@H](O)[C@H](O)[C@H]6O)CC[C@]5(C)[C@H]4CC[C@]3(C)[C@H]1[C@@H]2C` [Timosaponin AV] was tested, and the IC50 [2] was 21.6 ± 5.2 µM, the IC50 [3] was 17.4 ± 4.29 µM and the “Aβ profile (Aβ42 vs Aβ40 and Aβ38)” value [7] was “preferentially lower Aβ42 production”. It also gave an IC50 [1, 8] of 4.2 ± 1.2 µM, an IC50 [4] of 20 ± 0.71 µM and an IC50 [5] of 21.7 ± 2.27 µM.
For `C[C@H]1CC[C@@]2(OC1)O[C@H]1C[C@H]3[C@@H]4CC[C@@H]5C[C@H](O)CC[C@]5(C)[C@H]4CC[C@]3(C)[C@H]1[C@@H]2C` [Episarsasapogenin], the IC50 [1, 8] was over 100 µM.
For `C[C@@H](CC[C@@]1(O)O[C@H]2C[C@H]3[C@@H]4CC[C@@H]5C[C@@H](O[C@@H]6O[C@H](CO)[C@H](O)[C@H](O)[C@H]6O[C@@H]6O[C@H](CO)[C@@H](O)[C@H](O)[C@H]6O)CC[C@]5(C)[C@H]4CC[C@]3(C)[C@H]2[C@@H]1C)CO[C@@H]1O[C@H](CO)[C@@H](O)[C@H](O)[C@H]1O` [Timosaponin BII], the IC50 [2] was over 100 µM, the IC50 [3] was over 100 µM and the IC50 [4] was over 100 µM. It also gave an IC50 [5] of over 100 µM.
`C[C@@H]1CC[C@@]2(OC1)O[C@H]1C[C@H]3[C@@H]4C[C@H](O)[C@H]5C[C@@H](O)CC[C@]5(C)[C@H]4CC[C@]3(C)[C@H]1[C@@H]2C` [5α-H, 6α-OH diosgenin] showed an IC50 [1, 8] of over 100 µM.
`C[C@@H]1CC[C@@]2(OC1)O[C@H]1C[C@H]3[C@@H]4C[C@@H](O)[C@@H]5C[C@@H](O)CC[C@]5(C)[C@H]4CC[C@]3(C)[C@H]1[C@@H]2C` [5β-H, 6β-OH diosgenin] showed an IC50 [1, 8] of over 100 µM.
`C[C@@H]1CC[C@@]2(OC1)O[C@H]1C[C@H]3[C@@H]4CC[C@@H]5CC(=O)CC[C@]5(C)[C@H]4CC[C@]3(C)[C@H]1[C@@H]2C` [Sarsasapogenone] gave an IC50 [1, 8] of 50 ± 5 µM.
Molecule `C[C@@H]1CC[C@@]2(OC1)O[C@H]1C[C@H]3[C@@H]4CC=C5C[C@@H](O[C@@H]6O[C@H](CO)[C@H](O)[C@H](O)[C@H]6O)CC[C@]5(C)[C@H]4CC[C@]3(C)[C@H]1[C@@H]2C` [Capsicoside A3] has an IC50 [1, 8] of over 100 µM.
In the case of `CC(CO)CCC1OC2CC3C4CCC5CC(O)CCC5(C)C4CCC3(C)C2C1C` (stereo not shown) [Dihydrosarsasapogenin], the IC50 [1, 8] is reported as over 100 µM.
Work on `C[C@H]1CC[C@@]2(OC1)O[C@H]1C[C@H]3[C@@H]4C[C@H](O)[C@H]5C[C@@H](O)CC[C@]5(C)[C@H]4CC[C@]3(C)[C@H]1[C@@H]2C` [5α-H, 6α-OH yamogenin] yielded an IC50 [1, 8] of over 100 µM.
`C[C@H]1CC[C@@]2(OC1)O[C@H]1C[C@H]3[C@@H]4C[C@@H](O)[C@@H]5C[C@@H](O)CC[C@]5(C)[C@H]4CC[C@]3(C)[C@H]1[C@@H]2C` [5β-H, 6β-OH yamogenin] was tested, and the IC50 [1, 8] was 45 ± 4 µM.
`C[C@H]1CC[C@@]2(OC1)O[C@H]1C[C@H]3[C@@H]4CC=C5C[C@@H](O)CC[C@]5(C)[C@H]4CC[C@]3(C)[C@H]1[C@@H]2C` [Yamogenin] was tested, and the IC50 [1, 8] was over 100 µM.
With `C[C@@H]1CC[C@@]2(OC1)O[C@H]1C[C@H]3[C@@H]4CC[C@@H]5C[C@@H](O)CC[C@]5(C)[C@H]4CC[C@]3(C)[C@H]1[C@@H]2C` [Smilagenin] the IC50 [1, 10] was over 100 µM.
For `C[C@H]1CC[C@@]2(OC1)O[C@H]1C[C@H]3[C@@H]4CC[C@@H]5C[C@@H](O[C@@H]6O[C@H](CO)[C@H](O)[C@H](O)[C@H]6O)CC[C@]5(C)[C@H]4CC[C@]3(C)[C@H]1[C@@H]2C` [Timosaponin AI], the IC50 [2] was 44.5 ± 1.15 µM, the IC50 [3] was 10.5 ± 4.64 µM and the “Aβ profile (Aβ42 vs Aβ40 and Aβ38)” value [7] was “preferentially lower Aβ42 production”. The IC50 [1, 9] was about 20 µM, the IC50 ([1]; Example 9, SweAPP N2A cells, Aβ1-42 ELISA, read-out: ICS50, inhibitor of Aβ production) was 5 µM and the IC50 [1, 8] was 6.1 ± 2.8 µM. The Neurite outgrowth (Neuro-2A cells) was “significant extension and branching of neurites”, the IC50 [4] was 10.2 ± 4.64 µM and the IC50 [5] was 12.1 ± 3.83 µM.
`CO[C@]1(CC[C@H](C)CO[C@@H]2O[C@H](CO)[C@@H](O)[C@H](O)[C@H]2O)O[C@H]2C[C@H]3[C@@H]4CC[C@@H]5C[C@@H](O[C@@H]6O[C@H](CO)[C@H](O)[C@H](O)[C@H]6O[C@@H]6O[C@H](CO)[C@@H](O)[C@H](O)[C@H]6O)CC[C@]5(C)[C@H]4CC[C@]3(C)[C@H]2[C@@H]1C` [Timosaponin BI] showed an IC50 [2] of over 100 µM, an IC50 [3] of over 100 µM and an IC50 [1, 8] of over 100 µM. The IC50 [4] was over 100 µM and the IC50 [5] was over 100 µM.
With `C[C@H]1CC[C@@]2(OC1)O[C@H]1C[C@H]3[C@@H]4CC[C@@H]5C[C@@H](O[C@@H]6O[C@H](CO)[C@@H](O)[C@H](O)[C@H]6O)CC[C@]5(C)[C@H]4CC[C@]3(C)[C@H]1[C@@H]2C` [Asparagoside A] the IC50 [2] was 65.4 ± 20.9 µM, the IC50 [3] was 7.72 ± 2.68 µM and the “Aβ profile (Aβ42 vs Aβ40 and Aβ38)” value [7] was “preferentially lower Aβ42 production”. For the same molecule, the IC50 [1, 8] was 6 ± 1.4 µM, the Neurite outgrowth (Neuro-2A cells) was “significant extension and branching of neurites” and the IC50 [4] was 14.1 ± 0.64 µM. For the same molecule, the IC50 [5] was 15.6 ± 1.96 µM.
Molecule `C[C@H]1CC[C@@]2(OC1)O[C@H]1C[C@H]3[C@@H]4CC[C@H]5C[C@@H](O)CC[C@]5(C)[C@H]4CC[C@]3(C)[C@H]1[C@@H]2C` [Neotigogenin] has an IC50 [1, 10] of over 100 µM.
In the case of `CC(C)[C@@H](C)/C=C/[C@@H](C)[C@H]1CC[C@H]2C3=CC=C4C[C@@H](O)CC[C@]4(C)[C@H]3CC[C@]12C` [Ergosterol, reference compound], the IC50 [1, 8] is reported as over 100 µM.
